Measurements reported in patent publication US10752634B2, “Crystalline forms of a brutons tyrosine kinase inhibitor” (Pharmacyclics LLC, priority 2012, dated 2020).
≈ marks a conversion by molar mass, not a printed value. Read-outs that look alike come from different tables or passages of the source. One block for each compound: values may come before it.

What was measured:
[1] = Thermodynamic aqueous solubility; format: physicochemical
Method: The suspension was equilibrated at 25° C. for 24 hours then the pH was measured. The suspension was then filtered through a glass fibre C filter. The filtrate was then diluted by an appropriate factor e.g. 101. Quantitation was by HPLC with reference to a standard solution of approximately 0.25 mg/ml in DMSO. Different volumes of the standard, diluted and undiluted sample solutions were injected. The solubility was calculated using the peak areas determined by integration of the peak found at the same retention time as the principal peak in the standard injection.
Analysis was performed on an Agilent HP1100 series system equipped with a diode array detector and using ChemStation software vB.02.01-SR1.

[2] = for changes in the XRPD after GVS analysis: after GVS isotherm; for mass change: between 0-90% RH
Method: Sorption isotherms were obtained using a SMS DVS Intrinsic moisture sorption analyser, controlled by DVS Intrinsic Control software v1.0.0.30. The sample temperature was maintained at 25° C. by the instrument controls. […] The weight change, (mass relaxation) of the sample as a function of % RH was constantly monitored by the microbalance (accuracy ±0.005 mg). Typically 5-20 mg of sample was placed in a tared mesh stainless steel basket under ambient conditions. The sample was loaded and unloaded at 40% RH and 25° C. (typical room conditions). A moisture sorption isotherm was performed as outlined below (2 scans giving 1 complete cycle). The standard isotherm was performed at 25° C. at 10% RH intervals over a 0-90% RH range. Data analysis was undertaken in Microsoft Excel using DVS Analysis Suite v6.0.0.7. The sample was recovered after completion of the isotherm and re-analysed by XRPD.

[3] = Solid form stability on storage, by XRPD; format: physicochemical; conditions: for XRPD pattern post storage: stated as property of the form
Method: X-Ray powder diffraction patterns were collected on a Bruker AXS C2 GADDS or Bruker AXS D8 diffractometer.
X-Ray Powder Diffraction patterns were collected on a Bruker AXS C2 GADDS diffractometer using Cu Ka radiation (40 kV, 40 mA), automated XYZ stage, laser video microscope for auto-sample positioning and a HiStar 2-dimensional area detector. X-ray optics consists of a single Göbel multilayer mirror coupled with a pinhole collimator of 0.3 mm A weekly performance check is carried out using a certified standard NIST 1976 Corundum (flat plate). The beam divergence, i.e. the effective size of the X-ray beam on the sample, was approximately 4 mm. A θ-θ continuous scan mode was employed with a sample—detector distance of 20 cm which gives an effective 2θ range of 3.2°-29.7°. Typically the sample would be exposed to the X-ray beam for 120 seconds. The software used for data collection was GADDS for WNT 4.1.16 and the data were analysed and presented using Diffrac Plus EVA v11.0.0.2 or v13.0.0.2.
X-Ray Powder Diffraction patterns were collected on a Bruker D8 diffractometer using Cu Ka radiation (40 kV, 40 mA), θ-2θ goniometer, and divergence of V4 and receiving slits, a Ge monochromator and a Lynxeye detector. The instrument is performance checked using a certified Corundum standard (NIST 1976). The software used for data collection was Diffrac Plus XRD Commander v2.5.0 and the data were analysed and presented using Diffrac Plus EVA v11.0.0.2 or v13.0.0.2. Samples were run under ambient conditions as flat plate specimens using powder as received. The sample was gently packed into a cavity cut into polished, zero-background (510) silicon wafer. The sample was rotated in its own plane during analysis. The details of the data collection are: • Angular range: 2 to 42° 2θ • Step size: 0.05° 2θ • Collection time: 0.5 s/step

OCI-Ly10 = assay: Growth inhibition of OCI-Ly10 (ABC-DLBCL) cells; format: cell-based; conditions: Homo sapiens
Excerpt: See U.S. Pat. No. 7,711,492 and Staudt et al., Nature, Vol. 463, Jan. 7, 2010, pp. 88-92, the contents of which are incorporated by reference in their entirety.

- observed aqueous solubility ([1]; about pH 8, stated as property of the form): about 0.013 mg/mL
- Solubility in aqueous solution, Conc. Found ([1]; pH 8, 25° C., 24 hours): 13 µg/mL (≈ 29.5 µM)
- changes in the XRPD after GVS analysis [2]: No significant changes
- mass change ([2]; 25° C.): < 0.3 % w/w
- XRPD pattern post storage ([3]; 25° C. and 97% RH for at least a week): substantially the same
- XRPD pattern post storage ([3]; 40° C. and 75% RH for at least a week): substantially the same
- crystallinity after storage ([3]; one week storage at 25° C./97% RH): unaffected
- crystallinity after storage ([3]; one week storage at 40° C./75% RH): unaffected
SMILES: C=CC(=O)N1CCC[C@@H](n2nc(-c3ccc(Oc4ccccc4)cc3)c3c(N)ncnc32)C1 [Form A, 1-((R)-3-(4-amino-3-(4-phenoxyphenyl)-1H-pyrazolo[3,4-d]pyrimidin-1-yl)piperidin-1-yl)prop-2-en-1-one]

- form conversion on standing and drying ([3]; standing at ambient temperature overnight and drying at 40° C. in vacuo for one day): converted to Compound 1, Form A
SMILES: C=CC(=O)N1CCC[C@@H](n2nc(-c3ccc(Oc4ccccc4)cc3)c3c(N)ncnc32)C1 [Form E, 1-((R)-3-(4-amino-3-(4-phenoxyphenyl)-1H-pyrazolo[3,4-d]pyrimidin-1-yl)piperidin-1-yl)prop-2-en-1-one]

- EC50 (OCI-Ly10; OCI-Ly10, 1 h, read-out: EC50 1 hour pulse, growth of OCI-Ly10): 50 nM
- EC50 (OCI-Ly10; OCI-Ly10, read-out: EC50 continuous exposure, growth of OCI-Ly10): 10 nM
SMILES: C=CC(=O)N1CCC[C@@H](n2nc(-c3ccc(Oc4ccccc4)cc3)c3c(N)ncnc32)C1 [Compound 1, 1-((R)-3-(4-amino-3-(4-phenoxyphenyl)-1H-pyrazolo[3,4-d]pyrimidin-1-yl)piperidin-1-yl)prop-2-en-1-one]

- hysteresis in GVS ([2]; 0-90% RH, 25° C.): No hysteresis
- changes in the XRPD after GVS analysis [2]: No significant changes
- mass change ([2]; 25° C.): 2.3 % w/w
SMILES: C=CC(=O)N1CCC[C@@H](n2nc(-c3ccc(Oc4ccccc4)cc3)c3c(N)ncnc32)C1 [Form B, 1-((R)-3-(4-amino-3-(4-phenoxyphenyl)-1H-pyrazolo[3,4-d]pyrimidin-1-yl)piperidin-1-yl)prop-2-en-1-one]
